The record followed here is article PMC8080777, “Discovery, optimization, and evaluation of non-bile acid FXR/TGR5 dual agonists” (Scientific Reports, 2021).

In this assay the test system is GLP-1. As to the kind of experiment: In vivo GLP-1 secretion after glucose challenge. Set-up: species or system C57 mice. As to conditions: for Plasma GLP-1 levels: single oral 100 mg/kg, overnight-fasted C57 mice, 2 g/kg glucose one hour later, blood 15 min after challenge. On the procedure:
Measurement of GLP-1 secretion: To measure plasma GLP-1 levels, 100 mg/kg of compounds 20p and 20q were administered orally to overnight-fasted C57 mice (n = 5 animals/group). One hour later, all mice were challenged with 2 g/kg glucose, and blood samples were collected after 15 min of glucose challenge test. Plasma GLP-1 levels were measured using the GLP-1 ELISA Kit Wako, High Sensitive (FUJIFILM Wako Pure Chemical Corporation, Osaka city, Osaka, Japan)[56].
Amersham Place Little Chalfont Buckinghamshire, HP7 9NA UK), and cDNA was synthesized using ReverTra Ace qPCR RT Master Mix (Toyobo Co., Ltd., Osaka City, Osaka, Japan). Real-time PCR was performed using a CFX96 Touch Real-Time PCR Analysis System (CFX Manager, Bio-Rad, 1000 Alfred Nobel Drive, Hercules, CA, USA), and the mRNA expression levels of SHP and CYP7A1, the target gene s of FXR, were measured using the intercalator […]
In vivo assay protocol (GLP-1)
Measurement of GLP-1 secretion: To measure plasma GLP-1 levels, 100 mg/kg of compounds 20p and 20q were administered orally to overnight -fasted C57 mice (n=5 animals/group). One hour later, all mice were challenged with 2 g/kg glucose, and blood samples were collected after 15 min of glucose challenge test. Plasma GLP-1 levels were measured using the GLP-1 ELISA Kit Wako, High Sensitive (FUJIFILM Wako Pure Chemical Corporation, Osaka city, Osaka, […]
In vivo assay protocol (OGTT test)
To measure blood glucose levels, 100 mg/kg of test compounds 20p and 20q or vehicle were administered orally to overnight-fasted C57 mice (n=5 mice/group, control; n=10). One hour later, all mice were challenged with 2 g/kg glucose, and blood samples were collected after 15 min of glucose loading. The blood glucose levels were measured using LabAssay Glucose (FUJIFILM Wako Pure Chemical Corporation, Osaka City, Osaka, Japan).5
In vivo in-house animal guidelines
Study protocols were designed and refined by taking reduction of animal use into consideration. […]

With `COC(=O)/C=C/c1cccc(N(Cc2ccc(-c3ccc(N(C)C)cc3)cc2)C(=O)C2CCCCC2)c1` [Compound 7, Fexaramine, reference compound], the “Serum GLP-1” value (single dose, wild-type mice) is listed as “did not increase serum GLP-1”. Consider `COc1cc(Cl)cc(N(CC23CCC(c4ccc(OC)c(C#N)c4)(CC2)CC3)C(=O)c2ccncc2C)c1` [Compound 20p], for which the “Plasma GLP-1 levels” value is recorded as “significantly increased the plasma levels of GLP-1”. `COc1ccc(C23CCC(CN(C(=O)c4ccncc4C)c4cc(Cl)cc(Cl)c4)(CC2)CC3)cc1C#N` [Compound 20q]: the “Plasma GLP-1 levels” value is recorded as “significantly increased the plasma levels of GLP-1”.
